For 99 molecules, AC50 and activity change, negative = inhibition results are on record in PubChem BioAssay AID540268 (Broad Institute, 2011).

The assay in a line: growth inhibition of yeast carrying parasite Hsp90, dose response, anti-malarial Hsp90 inhibitor project, ATP luminescence, 48 h, cherry-picked samples (AID 540268).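 On activity change, negative = inhibition: 0% = neutral control wells and -100% = positive control wells.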 The conditions noted are these: yeast expressing the parasite Hsp90, ATP luminescence; for activity change, negative = inhibition: at 26 µM (top of the series).

Calls of active or inactive are those of the source. How the calls were made is not given here.

On to `Cc1c(C(=O)NCCSCc2cccc(C(F)(F)F)c2)cnn1-c1ccc(Cl)cc1`, for which the AC50 (usually the concentration at which the activity in the assay is half-maximal) was 8.59 µM.

As to `CC(=NNC(=S)N1CC2CCC(CC2)C1)c1cnccn1`, the AC50 was less than 0.195 µM.

With `O=C(Nc1ccccc1)Oc1cccc2cccnc12`, the AC50 was 2.12 µM.

For `Nc1cc2c(cc1[N+](=O)[O-])-c1ccccc1C2=NO`, the AC50 is 8.64 µM.

With `CCCCCCCCCCCCCCCC(=O)OC(CC(=O)O)C[N+](C)(C)C` (centres undefined), the AC50 is 1.23 µM.

In the case of `CCOC(=O)c1ccc(NC(=O)CC2C(=O)OCCN2CC)cc1` (centres undefined), the AC50 is 4.28 µM.

With `CCCCCCC(=O)N(O)C1CC(=O)N(c2ccc(Br)cc2)C1=O` (centres undefined), the AC50 was 2.22 µM.

Turning to `COc1cc(/C=C/[N+](=O)[O-])ccc1OC(=O)c1cc2ccccc2oc1=O`, the AC50 is 1.3 µM.

`Cc1ccc(NC(=O)c2ccc(Cl)c(N3C(=O)C=CC3=O)c2)cc1`: the AC50 is 2.38 µM.

Regarding `Cc1c(C(=O)N(Cc2ccccc2)Cc2cccs2)cnn1-c1ccc(Cl)cc1`, the AC50 was 5.05 µM.

For `Oc1c(CN2CCN(c3ccc(F)cc3)CC2)cc(Cl)c2cccnc12`, the AC50 is less than 0.195 µM.

For the molecule `O=C(N/N=C/c1ccc(O)c2ncccc12)c1cccc(Br)c1`, the AC50 is 5.08 µM.

As to `N#C/C(=C\c1ccc([N+](=O)[O-])o1)C(=O)Nc1ccc(F)cc1`, the AC50 was 0.33 µM.

As for `O=C1/C(=C\c2ccc([N+](=O)[O-])cc2)CS(=O)(=O)C/C1=C/c1ccc([N+](=O)[O-])cc1`, the AC50 is 0.337 µM.

On to `O=[N+]([O-])c1cccc(C=NNc2ccc3ccccc3n2)c1O`, for which the AC50 was 3.63 µM.

Regarding `Cc1ccc(N2C(=O)C3C4C=CC(CNC(=S)N5CCN(c6cccc(C)c6)C(C)C5)(O4)C3C2=O)cc1` (centres undefined), the AC50 is 4.65 µM.

Regarding `CCOC(=O)c1cc([N+](=O)[O-])c([N+](=O)[O-])cc1NC(C)=O`, the AC50 is 2.08 µM.

Regarding `CCCCC(=O)NC(c1ccc(C(C)C)cc1)c1ccc2cccnc2c1O` (centres undefined), the AC50 is 6.98 µM.

Regarding `CCCCCCCCCC[N+](C)(C)CC/C=C1/c2ccccc2Sc2ccc(Cl)cc21`, the AC50 is 6.32 µM.

On to `OCCOCCn1c(C2CCCN2c2nc(-c3ccc(F)cc3)cs2)nc2cc(Cl)c(Cl)cc21` (centres undefined), for which the AC50 was 6 µM.

Consider `Cc1ccc(S(=O)(=O)Nc2ccc3ccccc3c2[N+](=O)[O-])cc1`, for which the AC50 is 7.36 µM.

With `O=C1/C(=C\c2ccc(O)c(O)c2)SC(=S)N1Cc1ccccc1`, the AC50 is 4.26 µM.

`COc1ccc2c(c1)OC[C@H]1[C@H]2N2C(=O)c3cc(C)ccc3NC(=O)[C@@]2(C)[C@H]1c1ccccc1`: the AC50 is 0.988 µM.

For `Cc1nnc(C)n1/N=C/c1cc(Br)cc(Br)c1O`, the half-maximal activity concentration (AC50) is 4.35 µM.

Consider `COc1ccc(NC(=O)c2sc3ncnc(N4CCN(c5ccccn5)CC4)c3c2C)cc1Cl`, for which the AC50 is 3.46 µM.

As for `Cc1ccc(-c2cc(-c3ccc(F)cc3)c(C#N)c(N)n2)o1`, the activity change, negative = inhibition is 19.7% (inactive).

For `COC(=O)C1CN(C#N)N(c2ccc(Cl)cc2)C12c1ccccc1-c1ccccc12` (centres undefined), the half-maximal activity concentration (AC50) was 4.07 µM.

For `CCN(CC)C1CC(=O)N(c2cccc(Cl)c2)C1=O` (centres undefined), the AC50 is 0.97 µM.

With `CCCCN1C(=O)/C(=C/C=C2\Oc3ccccc3N2CC)SC1=S`, the activity change, negative = inhibition was 32.9% (inactive).

For the molecule `CCOc1ccc(NCc2cc3c(C(C)(C)C)nn(-c4ccccc4)c3[nH]c2=O)cc1`, the concentration at half-maximal activity (AC50) was 18.1 µM.

As to `Cc1cc2n(n1)C(c1c[nH]c3ccccc13)Nc1ccccc1-2` (centres undefined), the AC50 is 2.67 µM.

Turning to `Nc1ncnc2c1ncn2C1OC(COP(=O)(O)O)C(O)C1O` (centres undefined), the AC50 is 2.27 µM.

For `Cc1cccc(C)c1OCC(=O)NNC(=S)NC(=O)C1CC1`, the AC50 is 1.35 µM.

Turning to `O=C(O)c1ccc(N/N=C/c2ccc(-c3ccccc3)cc2)cc1`, the AC50 was 4.22 µM.

Turning to `O=[N+]([O-])c1ccc(O)c2ncccc12`, the AC50 is 1.66 µM.

With `O=c1c(Br)ccc(Br)cc1Br`, the AC50 was 0.38 µM.

With `Cc1c(CCCl)c(Cl)n2c(nc3ccccc32)c1C#N`, the AC50 was 3.39 µM.

Turning to `O=C1C=C(c2ccc(Cl)cc2)C(=O)N1Nc1ccccc1`, the AC50 is less than 0.195 µM.

Regarding `Oc1ccccc1N=Nc1nc(-c2ccccc2)c(-c2ccccc2)[nH]1`, the AC50 was 1.98 µM.

With `COc1cccc(-c2nc(NC3CCCC3)c3ccccc3n2)c1O`, the AC50 was 4.23 µM.

Turning to `O=C1/C(=C\c2ccc(Cl)cc2)CCC1CNc1ccc(Cl)cc1` (centres undefined), the AC50 was less than 0.195 µM.

`Cc1cc(N2CCN(C(=O)c3ccco3)CC2)n2ncc(-c3ccccc3)c2n1`: the AC50 is 2.31 µM.

Consider `COC(=O)c1cc(=O)n(-c2ccc(F)cc2)c(=Nc2ccc(F)cc2)s1`, for which the AC50 was 13.9 µM.

In the case of `CCCCCCCCCCCCCCCC[N+](C)(C)CCl`, the AC50 was 4.3 µM.

As for `CC[C@H](C)/C=C/C1=CC2=C(Cl)C(=O)[C@@]3(C)OC(=O)C(C(=O)[C@H](C)[C@@H](C)O)=C3C2=CO1`, the AC50 is 15.2 µM.

In the case of `O=c1oc(-c2ccccc2)cc(Cl)c1Cl`, the AC50 is 3.77 µM.

In the case of `C=CC(n1cncn1)C(O)(c1ccccc1)c1ccccc1` (centres undefined), the AC50 was 1.03 µM.

In the case of `COc1cccc(/C=N/NC(=O)C(=O)Nc2ccccc2OC(F)(F)C(F)F)c1O`, the AC50 is 0.731 µM.

Regarding `COc1ccc(NC(=S)Nc2ccc3snnc3c2)cc1`, the activity change, negative = inhibition is -20.2% (inactive).

In the case of `CSC(=S)NN=C(C)c1cccc(C)n1`, the AC50 was 15.6 µM.

Take `CCN(CCO)C1CC(=O)N(c2ccccc2C)C1=O` (centres undefined): the concentration at half-maximal activity (AC50) is 1.26 µM.

As to `Oc1ccc(/C=C/c2ccc3cccc(O)c3n2)cc1Br`, the AC50 was 4.26 µM.

Regarding `CCCCN(CCCC)CCC(O)c1cc2c(Cl)cc(Cl)cc2c2cc(C(F)(F)F)ccc12` (centres undefined), the AC50 was 7.42 µM.

`Cc1cccc(Nc2nc(N)c([N+](=O)[O-])c(N3CCCC(C)C3)n2)c1` (centres undefined): the AC50 is 2.03 µM.

`Clc1ccc(C(Cn2ccnc2)OCc2csc3c(Cl)cccc23)c(Cl)c1` (centres undefined): the AC50 is less than 0.195 µM.

Take `COc1cc(N2C(=O)C=CC2=O)c(OC)cc1Cl`: the AC50 was 1.77 µM.

Consider `C/C(=N\Nc1ncnc2sc(C)c(C)c12)c1ccccn1`, for which the half-maximal activity concentration (AC50) is 2.01 µM.

As for `O=C1OC(c2ccccc2)(c2cc(Br)c(O)c(Br)c2)c2ccccc21` (centres undefined), the AC50 was 2.97 µM.

Consider `CC(C)(C)c1ccc(-n2nc(C#N)c(Cl)cc2=O)cc1`, for which the AC50 is 4.31 µM.

Regarding `O=c1ccc(N=Nc2ccccc2)ccc1O`, the AC50 was 1.48 µM.

For `CCCCC(=O)NC(c1ccco1)c1cc(Cl)c2cccnc2c1O` (centres undefined), the AC50 was 4.6 µM.

For `O=C(OCC(=O)C12CC3CC(CC(C3)C1)C2)c1ccc(O)cc1O`, the AC50 is 15.6 µM.

`CC1=CC(C)CC(C)OC(=O)CC(c2ccc(O)cc2)NC(=O)C(Cc2c(Br)[nH]c3ccccc23)N(C)C(=O)C(C)NC(=O)C(C)C1` (centres undefined): the AC50 is 5.2 µM.

Turning to `CN(C)C(=S)SSC(=S)N(C)C`, the AC50 was 3.96 µM.

In the case of `O=C1CC(c2ccccc2)CC(O)=C1C=Nc1cccc(Cl)c1` (centres undefined), the AC50 was 3.26 µM.

Consider `Cc1ccc(C(=O)c2coc3c2C(=O)C(=O)c2ccccc2-3)cc1`, for which the concentration at half-maximal activity (AC50) is 8.16 µM.

With `Cc1cc(C)cc(N2C(=O)C=CC2=O)c1`, the AC50 is less than 0.195 µM.

With `O=C(c1ccc2c(=O)n(C3CCCC3)c(=S)[nH]c2c1)N1CCc2ccccc21`, the AC50 was 6.25 µM.

As for `Cc1c(C)c2cccnc2c2ncccc12`, the AC50 was 4.22 µM.

For the molecule `CCCCCCCCCCCCCCCC[N+](C)(C)CC`, the AC50 is 4.04 µM.

Turning to `CC(=NNC(=S)N1CCCCCC1)c1ccccn1`, the AC50 was 3.89 µM.

Consider `O=C(Nc1ccccc1)c1nnsc1S(=O)c1ccc(Cl)cc1` (centres undefined), for which the AC50 is less than 0.195 µM.

Take `COc1ccc(C(=O)NC(=S)NNC(=O)c2cnccn2)cc1`: the AC50 was 2.98 µM.

As to `Cc1[nH]n(-c2ccccc2)c(=O)c1C(C[N+](=O)[O-])c1ccc(Br)cc1` (centres undefined), the AC50 was 8.54 µM.

Turning to `Cc1ccc2nc(-c3ccc(NS(C)(=O)=O)cc3)cc(-c3ccccc3)c2c1`, the AC50 was 2.95 µM.

On to `CCCC(=O)NC(c1ccccc1Cl)c1ccc2cccnc2c1O` (centres undefined), for which the concentration at half-maximal activity (AC50) is 4.13 µM.

As for `Clc1ccc(C(c2ccc(Cl)cc2)n2cc[n+](CC(OCc3ccc(Cl)cc3Cl)c3ccc(Cl)cc3Cl)c2)cc1` (centres undefined), the AC50 was 5.47 µM.

For the molecule `O=c1oc2ccccc2c(O)c1Cc1cc(Cl)c2cccnc2c1O`, the AC50 is 3.36 µM.

For `O=C(O)/C=C/C(=O)c1ccc2c(c1)CCc1ccccc1-2`, the AC50 was 26.3 µM.

As to `COC(=O)C1CCN(C2CC(=O)N(c3cc(C)cc(C)c3)C2=O)CC1` (centres undefined), the AC50 is 7.68 µM.

Regarding `CCN1C/C(=C\c2cccc([N+](=O)[O-])c2)C(=O)/C(=C/c2cccc([N+](=O)[O-])c2)C1`, the AC50 was 5.63 µM.

For `Cn1c(/C=C/c2ccc([N+](=O)[O-])o2)nc2ccccc2c1=O`, the AC50 was 6 µM.

Consider `COc1ccc(-c2sc3ccccc3c2/C=C/c2ccncc2)cc1`, for which the AC50 is 4.84 µM.

For the molecule `CCN1CCCC1CN(Cc1cc2ccc(C)cc2[nH]c1=O)C(=S)Nc1ccc(F)cc1` (centres undefined), the AC50 was 3.2 µM.

Take `CCN1/C(=C\c2ccc3cc(C)ccc3[n+]2CC)Sc2cc(C)c(C)cc21`: the AC50 was 3.51 µM.

Regarding `Cc1cc(N2CCN(c3cccc(C)c3C)CC2)nc(-c2ccccc2)n1`, the AC50 is 2.47 µM.

For `Cc1ccc(C(=O)Sc2cccccc2=O)cc1`, the AC50 was 6.77 µM.

As for `Cc1ccc(O)c(NC(=S)NC(=O)c2ccc(-c3ccc(Cl)cc3)o2)c1`, the AC50 was 14.7 µM.

For `O=C1C(=C(I)I)c2ccccc2-c2ccccc21`, the activity change, negative = inhibition was 26.6% (inactive).

For `CCCC(=O)NC(c1ccc(Cl)cc1)c1ccc2cccnc2c1O` (centres undefined), the AC50 was 7.47 µM.

With `Oc1c(CN2CCN(c3ccccc3)CC2)cc(Br)c2cccnc12`, the AC50 was 7.92 µM.

For `O=[N+]([O-])/C=C/c1ccc2c(ccn2Cc2ccccc2)c1`, the AC50 was 4.35 µM.

As for `O=C(c1cccs1)c1no[n+]([O-])c1C(=O)c1cccs1`, the half-maximal activity concentration (AC50) is 2.18 µM.

Consider `O=C1CC(N2CCCCCC2)C(=O)N1c1ccc2c(c1)OCO2` (centres undefined), for which the AC50 was 4.12 µM.

With `O=C(Nc1ccccc1N1CCOCC1)c1ccc([N+](=O)[O-])o1`, the AC50 is 4.41 µM.

`O=S1(=O)Nc2c(ccc3cccnc23)-c2ccccc21`: the AC50 was 0.894 µM.

As to `Cc1[nH]n(-c2ccc([N+](=O)[O-])cc2)c(=O)c1C=NCCN1CCN(C(=O)c2ccccc2F)CC1`, the AC50 is 6.44 µM.

`Cn1nnnc1N=N/C(=N/Nc1ccccc1)c1ccccc1`: the AC50 is 3.2 µM.

As to `O=C(/C=C/c1ccccn1)c1cc(Br)ccc1O`, the AC50 was 1.01 µM.
